Experiments:
[1] = tested on: neovascularization; assay: Contemplated clinical cases, local ocular CAI against neovascularization; type: in vivo
Text: The following contemplated clinical cases of angiogenesis are presented as examples of methods of treatment and not as limitations. Other illustrations of treating systemic or localized angiogenesis are not presented, since the principles involved are similar, and will be apparent to the skilled reader based upon review of an individual's clinical manifestation and the preferred embodiments of the inventive compositions.

[2] = patients; cited from earlier work
[3] = cited from earlier work
[4] = in vivo; cited from earlier work
[5] = single 5 mg peribulbar injection in humans; cited from earlier work

Row | SMILES | neovascular regression ([1]; Example 9, proliferative diabetic retinopathy, intravitreal 50 mcg) | neovascular regression ([1]; Example 10, subfoveal membrane, intravitreal 200 mcg then periocular sustained release solution) | plasma concentrations associated with unacceptable toxicity [2] | toxic effects observed in clinical studies ([3]; systemic oral dosing, doses required for effective circulating levels) | serious side effect of clinical use by systemic administration ([3]; two cases described (Berlin et al. 2002)) | serum half-life [4] | dexamethasone detected in the vitreous cavity [5]
1 | NC(=O)c1nnn(Cc2cc(Cl)c(C(=O)c3ccc(Cl)cc3)c(Cl)c2)c1N [CAI] | some neovascular regression | neovascular regression occurs | above 100 micromolar | cerebellar ataxia, peripheral neuropathy and exacerbation of depression | loss of vision | 111 h | 
2 | C[C@@H]1C[C@H]2[C@@H]3CCC4=CC(=O)C=C[C@]4(C)[C@@]3(F)[C@@H](O)C[C@]2(C)[C@@]1(O)C(=O)CO [Dexamethasone] |  |  |  |  |  |  | 13 ng/mL

Source: patent publication US8614235B2, “CAI-based systems and methods for the localized treatment of ocular and other diseases” (RFE Pharma LLC, priority 2004, dated 2013)
